Measurements reported in patent US10947252B2, “Inhibitors of KEAP1-Nrf2 protein-protein interaction” (Janssen Pharmaceutica NV, priority 2018, dated 2021).

Experiments:
[1] = test system: Glo-Response ARE-luc2P HEK293 cell line; test: ARE luciferase reporter cell-based assay; details: Homo sapiens, HEK293, 24 h, average of results obtained;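 further: luciferase signal tracks Nrf2 activation of the ARE once compounds disrupt KEAP1-Nrf2 binding, read with One-Glo reagent, DMSO serving as low control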
[2] = molecular target: Kelch domain of human KEAP1 (321-624 aa) (Homo sapiens (Human), UniProt Q14145); test: KEAP1 KELCH ThermoFluor binding assay; details: KEAP Kelch […], 1,8-ANS, pH 7.0, average of results obtained, read-out: Tf Kd;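 further: Ligand-induced melting temperature shift of E. coli-expressed KEAP1 Kelch protein, Kd estimated from concentration-response curves of ΔTm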
Sequence of Kelch domain of human KEAP1 (321-624 aa) (Q14145 321-624): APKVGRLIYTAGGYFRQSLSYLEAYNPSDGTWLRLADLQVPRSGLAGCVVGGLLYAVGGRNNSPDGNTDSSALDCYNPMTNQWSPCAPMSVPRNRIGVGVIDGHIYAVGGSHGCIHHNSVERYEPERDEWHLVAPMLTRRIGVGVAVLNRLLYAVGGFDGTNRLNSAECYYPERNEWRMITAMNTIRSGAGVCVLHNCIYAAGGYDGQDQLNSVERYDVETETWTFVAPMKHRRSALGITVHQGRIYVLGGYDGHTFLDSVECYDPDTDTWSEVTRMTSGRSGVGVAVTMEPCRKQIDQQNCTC

Cc1ccc([C@@H](CC(=O)O)c2ccn3c(C(F)F)nnc3c2C)cc1CN1C[C@@H]2CCCCN2c2ncccc2S1(=O)=O (single isomer, unassigned) [Example 448, (*R)-3-(3-(Difluoromethyl)-8-methyl-[1,2,4]triazolo[4,3-a]pyridin-7-yl)-3-(3-(((*S)-5,5-dioxido-7,7a,8,9,10,11-hexahydro-6H-dipyrido[2,1-d:2′,3′-f][1,2,5]thiadiazepin-6-yl)methyl)-4-methylphenyl)propanoic Acid]
EC50 [1]: 0.218 µM
Kd [2]: < 0.001 µM

CCn1nnc2c(C)c([C@H](CC(=O)O)c3ccc(C)c(CN4C[C@@H]5CCCN5c5ncccc5S4(=O)=O)c3)ccc21 (single isomer, unassigned) [Example 157, (*R)-3-(3-(((S)-5,5-Dioxido-7a,8,9,10-tetrahydropyrido[2,3-f]pyrrolo[2,1-d][1,2,5]thiadiazepin-6(7H)-yl)methyl)-4-methylphenyl)-3-(1-ethyl-4-methyl-1H-benzo[d][1,2,3]triazol-5-yl)propanoic Acid]
EC50 [1]: 0.062 µM
Kd [2]: ~0.0032 µM

CC[C@@H]1CN(Cc2cc(C(CC(=O)O)c3ccn4c(C(F)(F)F)nnc4c3)ccc2C)S(=O)(=O)c2cccnc2O1 (single isomer, unassigned) [Example 258, (*R)-3-(3-(((R)-4-Ethyl-1,1-dioxido-3,4-dihydro-2H-pyrido[2,3-b][1,4,5]oxathiazepin-2-yl)methyl)-4-methylphenyl)-3-(3-(trifluoromethyl)-[1,2,4]triazolo[4,3-a]pyridin-7-yl)propanoic Acid]
EC50 [1]: 0.428 µM
Kd [2]: < 0.001 µM

Cc1ccc([C@H](c2ccn3c(C(F)F)nnc3c2C)C(C)(C)C(=O)O)nc1CN1CC2(CCOCC2)Oc2nc(OCCN3CCCC3)c(C)cc2S1(=O)=O (single isomer, unassigned) [Example 643, (*R)-3-(3-(Difluoromethyl)-8-methyl-[1,2,4]triazolo[4,3-a]pyridin-7-yl)-2,2-dimethyl-3-(5-methyl-6-((8′-methyl-1′,1′-dioxido-7′-(2-(pyrrolidin-1-yl)ethoxy)-2,3,5,6-tetrahydrospiro[pyran-4,4′-pyrido[2,3-b][1,4,5]oxathiazepin]-2′(3′H)-yl)methyl)pyridin-2-yl)propanoic Acid]
EC50 [1]: 9.78 µM
Kd [2]: 2.42 µM

CC[C@@H]1CN(Cc2cc([C@@H](CC(=O)O)c3ccn4c(C(F)(F)F)nnc4c3C)ccc2C)S(=O)(=O)c2cccnc2O1 (single isomer, unassigned) [Example 190, (*R)-3-(3-(((R)-4-Ethyl-1,1-dioxido-3,4-dihydro-2H-pyrido[2,3-b][1,4,5]oxathiazepin-2-yl)methyl)-4-methylphenyl)-3-(8-methyl-3-(trifluoromethyl)-[1,2,4]triazolo[4,3-a]pyridin-7-yl)propanoic Acid]
EC50 [1]: 0.057 µM
Kd [2]: < 0.001 µM

Cc1cnc2c(c1)S(=O)(=O)N(Cc1nc([C@H](c3ccn4c(C(F)F)nnc4c3C)C(C)(C)C(=O)O)ccc1C)CC1(COC1)O2 (single isomer, unassigned) [Example 626, (*R)-3-(3-(Difluoromethyl)-8-methyl-[1,2,4]triazolo[4,3-a]pyridin-7-yl)-2,2-dimethyl-3-(5-methyl-6-((8′-methyl-1′,1′-dioxidospiro[oxetane-3,4′-pyrido[2,3-b][1,4,5]oxathiazepin]-2′(3′H)-yl)methyl)pyridin-2-yl)propanoic Acid]
EC50 [1]: 0.229 µM
Kd [2]: 2.98 µM

Cc1ccc([C@@H](CC(=O)O)c2ccc3c(nnn3C3CC3)c2C)cc1CN1CC2(COC2)Oc2ccccc2S1(=O)=O (single isomer, unassigned) [Example 216, (*R)-3-(1-Cyclopropyl-4-methyl-1H-benzo[d][1,2,3]triazol-5-yl)-3-(3-((1,1-dioxidospiro[benzo[b][1,4,5]oxathiazepine-4,3′-oxetan]-2(3H)-yl)methyl)-4-methylphenyl)propanoic Acid]
EC50 [1]: 0.038 µM
Kd [2]: 0.002 µM

Cc1ccc([C@@H](c2ccn3c(C(F)F)nnc3c2C)C(C)(C)C(=O)O)cc1CN1CC2(CCOCC2)Oc2nc(OCCN3CCOCC3)ccc2S1(=O)=O (single isomer, unassigned) [Example 579, (*S)-3-(3-(Difluoromethyl)-8-methyl-[1,2,4]triazolo[4,3-a]pyridin-7-yl)-2,2-dimethyl-3-(4-methyl-3-((7′-(2-morpholinoethoxy)-1′,1′-dioxido-2,3,5,6-tetrahydrospiro[pyran-4,4′-pyrido[2,3-b][1,4,5]oxathiazepin]-2′(3′H)-yl)methyl)phenyl)propanoic Acid]
EC50 [1]: 0.0278 µM
Kd [2]: < 0.001 µM

Cc1ccc([C@H](CC(=O)O)c2ccn3c(C)nnc3c2)cc1CN1C[C@H]2CCCN2c2ccccc2S1(=O)=O (single isomer, unassigned) [Example 165, (*S)-3-(3-(((R)-5,5-Dioxido-7a,8,9,10-tetrahydrobenzo[f]pyrrolo[2,1-d][1,2,5]thiadiazepin-6(7H)-yl)methyl)-4-methylphenyl)-3-(3-methyl-[1,2,4]triazolo[4,3-a]pyridin-7-yl)propanoic Acid]
EC50 [1]: 1.49 µM
Kd [2]: < 0.001 µM

Cc1ccc([C@H](CC(=O)O)c2ccn3c(C(F)F)nnc3c2C)cc1CN1C[C@H]2COCCN2c2ncccc2S1(=O)=O (single isomer, unassigned) [Example 461, (*S)-3-(3-(Difluoromethyl)-8-methyl-[1,2,4]triazolo[4,3-a]pyridin-7-yl)-3-(3-(((*S)-5,5-dioxido-7a,8,10,11-tetrahydro-[1,4]oxazino[3,4-d]pyrido[2,3-f][1,2,5]thiadiazepin-6(7H)-yl)methyl)-4-methylphenyl)propanoic Acid]
EC50 [1]: 0.0687 µM
Kd [2]: 0.00119 µM

Cc1ccc([C@@H](CC(=O)O)c2ccn3c(C(F)(F)F)nnc3c2C)cc1CN1C[C@H]2CN(C)CCN2c2ncccc2S1(=O)=O (single isomer, unassigned) [Example 182, (*R)-3-(4-Methyl-3-(((*R)-9-methyl-5,5-dioxido-7,7a,8,9,10,11-hexahydro-6H-pyrazino[2,1-d]pyrido[2,3-f][1,2,5]thiadiazepin-6-yl)methyl)phenyl)-3-(8-methyl-3-(trifluoromethyl)-[1,2,4]triazolo[4,3-a]pyridin-7-yl)propanoic Acid]
EC50 [1]: 1.39 µM
Kd [2]: 0.18 µM

Cc1ccc([C@H](c2ccn3c(C(F)(F)F)nnc3c2C)C(C)(C)C(=O)O)cc1CN1CC2(CCOCC2)Oc2nc(OCCN3CCOCC3)ccc2S1(=O)=O (single isomer, unassigned) [Example 48, (*R)-2,2-Dimethyl-3-(4-methyl-3-((7′-(2-morpholinoethoxy)-1′,1′-dioxido-2,3,5,6-tetrahydrospiro[pyran-4,4′-pyrido[2,3-b][1,4,5]oxathiazepin]-2′(3′H)-yl)methyl)phenyl)-3-(8-methyl-3-trifluoromethyl)-[1,2,4]triazolo[4,3-a]pyridine-7-yl)propanoic Acid]
EC50 [1]: 6.27 µM
Kd [2]: 0.82 µM

Cc1ccc([C@H](CC(=O)O)c2ccn3c(C(F)(F)F)nnc3c2C)cc1CN1C[C@H]2CCCN2c2ccccc2S1(=O)=O (single isomer, unassigned) [Example 266, (*S)-3-(3-(((R)-5,5-Dioxido-7a,8,9,10-tetrahydrobenzo[f]pyrrolo[2,1-d][1,2,5]thiadiazepin-6(7H)-yl)methyl)-4-methylphenyl)-3-(8-methyl-3-(trifluoromethyl)-[1,2,4]triazolo[4,3-a]pyridin-7-yl)propanoic Acid]
EC50 [1]: 0.0146 µM
Kd [2]: < 0.001 µM

Cc1cnc(C(c2ccn3c(C(F)(F)F)nnc3c2C)C(C)(C)C(=O)O)cc1CN1CC2(CCOCC2)Oc2ncccc2S1(=O)=O (racemic) [Example 55, (R/S)-3-(4-((1′,1′-Dioxido-2,3,5,6-tetrahydrospiro[pyran-4,4′-pyrido[2,3-b][1,4,5]oxathiazepin]-2′(3′H)-yl)methyl)-5-methylpyridin-2-yl)-2,2-dimethyl-3-(8-methyl-3-(trifluoromethyl)-[1,2,4]triazolo[4,3-a]pyridin-7-yl)propanoic Acid]
EC50 [1]: 0.124 µM
Kd [2]: < 0.001 µM

Cc1cnc2c(c1)S(=O)(=O)N(Cc1cc([C@H](CC(=O)O)c3ccn4c(C(F)(F)F)nnc4c3C)ccc1Cl)CC1CCCCN21 (single isomer, unassigned) [Example 91, (*S)-3-(4-Chloro-3-(((*S)-3-methyl-5,5-dioxido-7,7a,8,9,10,11-hexahydro-6H-dipyrido[2,1-d:2′,3′-f][1,2,5]thiadiazepin-6-yl)methyl)phenyl)-3-(8-methyl-3-(trifluoromethyl)-[1,2,4]triazolo[4,3-a]pyridine-7-yl)propanoic Acid]
EC50 [1]: 0.0144 µM
Kd [2]: < 0.001 µM

Cc1cnc([C@H](c2ccn3c(C(F)(F)F)nnc3c2C)C(C)(C)C(=O)O)cc1CN1CC2(CCOCC2)Oc2ncccc2S1(=O)=O (single isomer, unassigned) [Example 57, (*R)-3-(4-((1′,1′-Dioxido-2,3,5,6-tetrahydrospiro[pyran-4,4′-pyrido[2,3-b][1,4,5]oxathiazepin]-2′(3′H)-yl)methyl)-5-methylpyridin-2-yl)-2,2-dimethyl-3-(8-methyl-3-(trifluoromethyl)-[1,2,4]triazolo[4,3-a]pyridin-7-yl)propanoic Acid]
EC50 [1]: 6.66 µM
Kd [2]: 5.67 µM

Cc1ccc(C(CC(=O)O)c2ccn3c(C(F)F)nnc3c2C)cc1CN1CC2CCCCN2c2ncc(C#N)cc2S1(=O)=O (stereo not drawn) [Example 28, 3-(3-((3-Cyano-5,5-dioxido-7,7a, 8,9,10,11-hexahydro-6H-dipyrido[2,1-d:2′,3′-f][1,2,5]thiadiazepin-6-yl)methyl)-4-methylphenyl)-3-(3-(difluoromethyl)-8-methyl-[1,2,4]triazolo[4,3-a]pyridin-7-yl)propanoic Acid]
EC50 [1]: 0.0235 µM
Kd [2]: < 0.001 µM

Cc1cnc2c(c1)S(=O)(=O)N(Cc1cc([C@H](c3ccn4c(C5CC5)nnc4c3C)C(C)(C)C(=O)O)ccc1C)CC1(COC1)O2 (single isomer, unassigned) [Example 619, (*R)-3-(3-Cyclopropyl-8-methyl-[1,2,4]triazolo[4,3-a]pyridin-7-yl)-2,2-dimethyl-3-(4-methyl-3-((8′-methyl-1′,1′-dioxidospiro[oxetane-3,4′-pyrido[2,3-b][1,4,5]oxathiazepin]-2′(3′H)-yl)methyl)phenyl)propanoic Acid]
EC50 [1]: 0.00448 µM
Kd [2]: < 0.001 µM
